Converted amounts (≈) assume the structure as drawn.
Experiments:
E. coli NR698 = assay: Spot-on-lawn MIC bioassay; type: cell-based; settings: Escherichia coli, NR698
Protocol: Indicator strains were grown for 16–18 h in LB (5 mL) by inoculation from a single colony. An aliquot of the resulting culture (500 μL) was then used to inoculate LB (50 mL in 250 mL Erlenmeyer flasks), followed by orbital shaking at 250 rpm until they reached an OD600 of 0.3–0.4. These cultures were then diluted 1 : 10 with molten soft nutrient agar (SNA), before pouring into appropriately sized Petri dishes to set. Serial dilutions of the test compounds (from 256 μg mL^−1 to 1 μg mL^−1 plus an additional sample at 1000 μg mL^−1) were prepared in acetonitrile (ACN), and 4 μL of each sample was applied directly onto the SNA surface. Kanamycin (50 μg mL^−1), apramycin (50 μg mL^−1) or aureobasidin A (0.2 μg mL^−1) were used as positive controls, as appropriate, and ACN or water (4 μL) were used as negative controls. […] Experiments were carried out in at least triplicate for each strain.

[1] = Hydrolysis of the β-lactone in HEPES buffer monitored by HPLC; type: physicochemical; settings: for hydrolysis of β-lactone (in words): 30 min, no Fe^3+
Protocol: Hydrolysis of 1–4 was analysed on an Agilent 1290 system fitted with an Agilent LC/MSD MS spectrometer. A Kinetex XB-C18, 100 × 4.6 mm, 5 μM column (Phenomenex) was used with a gradient elution: ACN/0.1% (v/v) FA (H2O) gradient from 5/95 for 0–0.5 min, 5/95 to 98/2 0.5–12 min, 98/2 for 12–13 min, gradient to 5/95 13–13.5 min and 5/95 for 13.5–15 min. The flow rate was 0.6 mL min^−1 and the injection volume of each sample 5 μL. DAD signals were analysed at 270 nm, with a bandwidth of 4 nm. MS were recorded in positive mode using an atmospheric pressure ionisation electrospray (API-ES) ion source with a capillary voltage of 3000 V. The drying gas temperature was 350 °C with a flow rate of 12 L min^−1. The scan parameters were: mass range = 200–1500; fragmentor = 70; gain EMV = 1.0; threshold = 150; step-size = 0.10. Data were analysed with Agilent ChemStation software.
Five solutions of HEPES buffer (111 mM) were prepared at pH 6.0, 6.5, 7.0, 7.5 and 8.0 respectively. A further five solution of HEPES buffer (111 mM) with Fe(NO3)3.9H2O ([…]) were also prepared at pH 6.0, 6.5, 7.0, 7.5, 8.0 respectively. Stock solutions of 1–4 (10 mM) were prepared in DMSO. For each hydrolysis experiment, stock solution of 1–4 (10 μL) was added the HEPES buffer (90 μL) or the HEPES + Fe(NO3)3.9H2O buffer (90 μL), to give final concentrations of HEPES (100 mM), 1–4 (1 mM) and Fe^3+ (0 or 1 mM). The reaction mixtures were shaken using a bench top vortex and left to stand for 30 min, after which the samples were analysed by HPLC using the Analytical HPLC method. All stock solutions of 1–4 were tested at every pH, with and without Fe^3+ and all experiments were repeated in triplicate.

**Q.** Which results are given for O=C(N[C@@H]1C(=O)O[C@@H]1Cc1ccc([N+](=O)[O-])cc1)c1cccc(O)c1O [compound 1, Obafluorin]?
**A.** MIC (E. coli NR698): 4 µg/mL (≈ 11.2 µM); effect of added Fe^3+ on hydrolysis (in words) ([1]; Fe^3+ 1 mM, HEPES 100 mM, pH 6.0–8.0, 30 min): protected 1 against hydrolysis at all pH values; hydrolysis of β-lactone (in words) ([1]; pH 6.0, HEPES 100 mM): little change; hydrolysis of β-lactone (in words) ([1]; pH 8.0, HEPES 100 mM): majority of 1 in the hydrolysed form
